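All cell lines were grown in 96-well plates and treated with compound for 48 hours. The concentration for full growth arrest is given as TGI.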
Legend:
Assay in all cases: NCI anticancer screen, dose series, 48 h
A549 NSCLC = tested on: A549 NSCLC
BT-549 breast = tested on: BT-549 breast
HCC-2998 colon = tested on: HCC-2998 colon
HL-60(TB) leukemia = tested on: HL-60(TB) leukemia
HOP-92 NSCLC = tested on: HOP-92 NSCLC
IGROV1 ovarian = tested on: IGROV1 ovarian
KM12 colon = tested on: KM12 colon
MDA-MB-231 breast = tested on: MDA-MB-231 breast
NCI-H522 lung = tested on: NCI-H522 lung
NCI/ADR-RES ovarian = tested on: NCI/ADR-RES ovarian
OVCAR-3 ovarian = tested on: OVCAR-3 ovarian
OVCAR-5 ovarian = tested on: OVCAR-5 ovarian
OVCAR-8 ovarian = tested on: OVCAR-8 ovarian
RPMI-8226 leukemia = tested on: RPMI-8226 leukemia
RXF 393 renal = tested on: RXF 393 renal
SF-539 CNS = tested on: SF-539 CNS
SNB-75 CNS = tested on: SNB-75 CNS
SW-620 colon = tested on: SW-620 colon

SMILES | TGI (A549 NSCLC) [µM] | TGI (BT-549 breast) [µM] | TGI (HCC-2998 colon) [µM] | TGI (HL-60(TB) leukemia) [µM] | TGI (HOP-92 NSCLC) [µM] | TGI (IGROV1 ovarian) [µM] | TGI (KM12 colon) [µM] | TGI (MDA-MB-231 breast) [µM] | TGI (NCI-H522 lung) [µM] | TGI (NCI/ADR-RES ovarian) [µM] | TGI (OVCAR-3 ovarian) [µM] | TGI (OVCAR-5 ovarian) [µM] | TGI (OVCAR-8 ovarian) [µM] | TGI (RPMI-8226 leukemia) [µM] | TGI (RXF 393 renal) [µM] | TGI (SF-539 CNS) [µM] | TGI (SNB-75 CNS) [µM] | TGI (SW-620 colon) [µM]
CCN(CC)C(=S)SS(=O)(=O)c1ccccc1[N+](=O)[O-] | > 100 | > 80.6 | > 100 | > 44.8 | > 54.8 | > 100 | > 50 | 37.3 | 2.83 | 97.5 | 68 | > 100 | > 56.9 | 40.9 | 45.4 | 34.1 | > 100 | > 53.7
CC(=O)OCC(OC(C)=O)C(OC(C)=O)C(OC(C)=O)C(/C=N\Nc1nc2ccccc2c(=O)[nH]1)=N/Nc1nc2ccccc2c(=O)[nH]1 (configuration not stated) | > 100 | > 100 | > 100 | > 100 | > 100 |  | > 100 | > 100 | > 100 | > 100 | > 100 | > 100 | > 100 | > 100 | > 100 | > 100 | > 100 | > 100
COC(=O)[C@@H]1Cc2cc(O)c(O)cc2C2(CCN(C)CC2)O1 | > 10 | > 10 | > 10 | > 10 | > 10 | > 10 | > 10 | > 10 | > 10 | > 10 | > 10 | > 10 | > 10 | > 10 | > 10 | > 10 | > 10 | > 10
CC(Oc1ccccc1Cl)C(=O)NN1C(=O)CSC1c1ccc(Cl)cc1 (configuration not stated) | 41 | 45.1 | 34.2 | 23.5 | 40.7 | 43 | 36.1 | 32.7 | 32.8 | 61.4 | 61.9 | 48 | 56.5 | 38.4 | 33.4 | 65.3 | 45.4 | 55.2
NC(N)=NS(=O)(=O)c1ccc(NC(=O)c2ccc3[nH]c4ccccc4c(=O)c3c2)cc1 | > 100 | > 100 | > 100 | > 100 | > 100 | > 100 | > 100 | > 100 | > 100 | > 100 | > 100 | > 100 | > 100 | > 100 | > 100 | > 100 | > 100 | > 100
COc1cc(C23OCC(Cc4cc5c(cc42)OCO5)C3CO)cc(OC)c1OC (configuration not stated) | > 100 | > 100 | 6.89 | > 50.1 | > 100 | > 100 | > 100 | > 84.4 | 5.11 | 5.51 | 5.8 | > 100 | > 100 | > 100 | 8.03 | 26.2 | > 100 | > 100
O=C(CN(c1ccc(S(=O)(=O)O)cc1)c1ccc(S(=O)(=O)O)cc1)Nn1cnc2ccc(S(=O)(=O)N(c3ccc(S(=O)(=O)O)cc3)c3ccc(S(=O)(=O)O)cc3)cc2c1=O | > 100 | > 100 | > 100 | > 100 | > 100 | > 100 | > 100 | > 100 | > 100 | > 100 | > 100 | > 100 | > 100 | > 100 | > 100 | > 100 | > 100 | > 100
c1ccc(C2=Nc3cccc4cccc(c34)N2)cc1 | > 100 | > 85.7 | > 100 | 8.14 | 52.7 | > 94.5 | > 85.1 | 54.7 | 24.8 | > 72.1 | 45.2 | > 100 | > 87 | > 84.6 | 45.6 | > 100 | > 100 | 39.3
COc1cccc2cc(C(=O)Nc3ccccn3)c(=N)oc12 | > 100 | > 100 | > 100 | 82.9 | > 100 | > 100 | > 100 | > 100 | > 100 | > 100 | 88.4 | > 100 | > 100 | > 100 | > 100 | > 100 | > 100 | > 100
CN(O)C(=S)c1ccccc1 | > 100 | > 100 | 44 | 7.04 | > 100 | 56.3 | 31.8 | > 24.9 | 0.688 | 7.88 | 34.8 | > 100 | 33.2 | 1.68 | 14.5 | 63.1 | > 100 | 14.6
COC1(CC[C@H](C)COC2OC(CO)C(O)C(O)C2O)O[C@H]2C[C@H]3[C@@H]4CC=C5C[C@@H](OC6OC(CO)C(O)C(OC7OC(CO)C(O)C(O)C7O)C6OC6OC(C)C(O)C(O)C6O)CC[C@]5(C)[C@H]4CC[C@]3(C)[C@H]2[C@@H]1C (some centres not stated) | 7.27 | 22.5 | 11.6 | 8.53 | 10.1 | 11.8 | 3.91 | 15.5 | 7.41 | 25.7 | 33.1 | > 32.5 | 9.47 | 23.6 | 16.3 | 4.85 | 7.25 | 5.87
CC1(C)CN=C(Nc2ccc(F)c(F)c2)S1 | > 100 | > 100 | > 100 | > 100 | 90.4 | > 100 | > 100 | > 100 | > 100 | > 100 | > 100 | > 100 | > 100 | > 100 | > 100 | > 100 | > 100 | > 100
COc1ccc2c(CCNS(=O)(=O)c3ccccc3)c(C(C)=O)[nH]c2c1 | > 100 | > 100 | > 100 | > 100 | > 100 | > 100 | > 100 | > 100 | > 100 | > 100 | > 100 | > 100 | > 100 | > 100 | > 100 | > 100 | > 100 | > 100
CC(=O)Oc1c(C)c2c(c3ccccc13)OC(C)(C)C2 | 33.9 | 39.4 | 32.7 | 69.6 | 31.9 | 30.9 | 27.6 | 48.6 | 36.7 | 51.4 | 52 | 34.4 | 32.5 | 39.1 | 35.9 | 37.3 | 33.1 | 35.8
O=S(=O)(OI(O)CC(F)(F)F)C(F)(F)F | > 100 | > 100 | > 100 | > 100 | > 100 | > 100 | > 100 | > 100 | > 100 | > 100 | > 100 | > 100 | > 100 | > 100 | > 100 | > 100 | > 100 | > 100
BrCC(Br)(c1ccccc1)c1ccccc1-c1cc(-c2ccccc2)cc(-c2ccccc2)n1 (configuration not stated) | 25.5 | 10.1 | 9.8 | 2.33 | 11.4 | 19.4 | 12.6 | 11.4 | 10.5 | > 100 |  | 8.35 | 16.7 | 18.2 | 5.92 | 19 | 4.08 | 14.2
Cc1c(-c2ccccc2)c(C#N)c2nnn(-c3cccc(Cl)c3)c(=O)n12 |  | > 100 | > 100 | > 100 | > 100 | > 100 | > 100 | 72.9 | > 100 | > 100 | > 100 | > 100 | > 100 | > 100 | > 100 | > 100 | > 100 | > 100
COC(=O)C1C(C(=O)OC)C1(Br)CBr (configuration not stated) | > 100 | 94.3 | > 100 | > 100 | 54.9 | > 100 | > 100 | > 100 | 14.1 | > 100 | > 100 | > 100 | > 100 | 44.3 | 41.6 | > 100 | > 100 | > 100
CC1OC(O[C@H]2CC[C@]3(C=O)[C@H]4CC[C@]5(C)[C@H](C6=CC(=O)OC6)CC[C@]5(O)[C@@H]4C=C[C@]3(O)C2)CC(O)C1O (some centres not stated) | 0.378 | 0.608 | 2.92 | 0.689 | 2.62 | 4.5 | 2.76 | 2.57 | 0.241 | 0.623 | 0.583 | 1.42 | 0.754 | 2.37 | 0.193 | 0.488 | 2.31 | 0.902
COCCOCCOCCOc1ccc(C(C#N)N(CCc2ccccc2)C(=O)c2cc(C(=O)N(CCc3ccccc3)C(C#N)c3ccc(OCCOCCOCCOC)cc3)cc(C(=O)N(CCc3ccccc3)C(C#N)c3ccc(OCCOCCOCCOC)cc3)c2)cc1 (configuration not stated) | > 100 | > 100 | > 100 | > 100 | > 100 | > 100 | > 100 | > 100 | > 100 | > 100 | > 100 | > 100 | > 100 |  | > 100 | > 100 | > 100 | > 100
COc1ccc(Nc2nc3ccccc3nc2C(=O)O)cc1OC | > 100 | > 100 | > 100 | > 100 | > 100 | > 100 | > 100 | > 100 | > 100 | > 100 | > 100 | > 100 | > 100 | > 100 | > 100 | > 100 | > 100 | > 100
O=c1[nH]c(=O)n(C/C=C/CBr)nc1Br | 30.8 | 27.7 | 28.3 | 24.5 | 26.5 | 29.5 | 28.8 | 14.1 | 14.5 | 45.6 | 23.9 | 31.1 | 29.9 | 23.3 | 25.4 | 27.7 | 24.3 | 29.5
O=C(N/N=C(/COc1cccc(Cl)c1)N=Cc1cccnc1)c1ccncc1 | > 100 | > 100 | > 100 | > 100 | 89.7 | > 100 | > 100 | > 100 | > 100 | > 100 | > 100 | > 100 | > 100 | > 100 | > 100 | > 100 | > 100 | > 100
CN(C)c1ccc(C(=NN)c2ccc(N(C)C)cc2)cc1 | > 100 | > 100 | 3.73 | 3.35 | > 54.4 | > 100 | > 100 | 10 | 18.7 | 0.672 |  | > 100 | > 100 | 10.3 | > 32.7 |  | 2.83 | > 100
O=C1NC(S(=O)(=O)O)=NNC12c1ccccc1-c1ccccc12 | > 10 | > 10 | > 10 | > 10 | > 10 | > 10 | > 10 | > 10 | > 10 | > 10 |  |  | > 10 | > 10 | > 10 | > 10 | > 10 | > 10

Reference: PubChem BioAssay (NCI)
